Experimental data reported in paper PMC10669340, “Bioactive Compounds from an Endophytic Pezicula sp. Showing Antagonistic Effects against the Ash Dieback Pathogen” (Biomolecules, 2023).
≈ marks a conversion by molar mass, not a printed value. Entries after “also recorded” stand apart in the source; their conditions may differ. Where two headings read alike, the source gives them in different places. Each block holds one compound with its values, some of them ahead of it.

Tests used:
[1] = test system: Fraxineus excelsior leaves; assay: Phytotoxicity leaf puncture assay; conditions: 1 mg/mL in MeOH, 20 µL on punctured leaves, evaluated after 3 days
Method: The phytotoxicity of the compounds 1, 3 and 4 was assessed using the leaf puncture assay as described previously. The other compounds could not be evaluated because of the limited quantity.
For this assay, similar leaves of the same Fraxineus excelsior plant were chosen onto which the compounds were applied. The pure compounds were dissolved at 1 mg/mL in MeOH. Then, 20 µL of test samples were applied to the adaxial sides of leaves that had previously been needle punctured. A total of 20 µL of MeOH in distilled water (4%) was applied on the leaves as the negative control and 1 mg/mL macrocidin A [23] as the positive control. Each treatment was repeated three times and then the leaves were placed on moistened paper filters in petri dishes (diameter 9 cm) to prevent the droplets from drying. The experiment was run in duplicate. Leaves were evaluated for the symptoms after 3 days.

[2] = test system: Pseudomonas aeruginosa PA14; assay: Antimicrobial serial dilution assay (MIC); type: cell-based; conditions: n.i.: no inhibition
Method: (§1) The antimicrobial activity (minimum inhibitory concentration, MIC) of the compounds was determined against Acinetobacter baumannii DSM 30008, Bacillus subtilis DSM 10, Chromobacterium violaceum DSM 30191, Escherichia coli DSM 1116, Mycobacterium smegmatis ATCC 700084, Pseudomonas aeruginosa PA14, Staphylococcus aureus DSM 346, Candida albicans DSM1665, Mucor hiemalis DSM 2656, Pichia anomala DSM 6766, Rhodotorula glutinis DSM 10134 and Schizosaccharomyces pombe DSM 70572 in a serial dilution assay as previously described.

[3] = test system: Staphylococcus aureus DSM 346; assay: Antimicrobial serial dilution assay (MIC); type: cell-based
Method: as §1

Bacillus subtilis DSM 10 = assay: Antimicrobial serial dilution assay (MIC); type: cell-based
Method: as §1

[4] = test system: Schizosaccharomyces pombe DSM 70572; assay: Antimicrobial serial dilution assay (MIC); type: cell-based
Method: as §1

[5] = test system: Chromobacterium violaceum DSM 30191; assay: Antimicrobial serial dilution assay (MIC); type: cell-based
Method: as §1

[6] = test system: Acinetobacter baumannii DSM 30008; assay: Antimicrobial serial dilution assay (MIC); type: cell-based; conditions: n.i.: no inhibition
Method: as §1

Mucor hiemalis DSM 2656 = assay: Antimicrobial serial dilution assay (MIC); type: cell-based
Method: as §1

[7] = test system: Escherichia coli DSM 1116; assay: Antimicrobial serial dilution assay (MIC); type: cell-based; conditions: n.i.: no inhibition
Method: as §1

Pichia anomala DSM 6766 = assay: Antimicrobial serial dilution assay (MIC); type: cell-based; conditions: Hansenula anomala
Method: as §1

[8] = test system: Mycobacterium smegmatis ATCC 700084; assay: Antimicrobial serial dilution assay (MIC); type: cell-based; conditions: Mycolicibacterium smegmatis
Method: as §1

[9] = test system: Rhodotorula glutinis DSM 10134; assay: Antimicrobial serial dilution assay (MIC); type: cell-based
Method: as §1

Candida albicans DSM1665 = assay: Antimicrobial serial dilution assay (MIC); type: cell-based; conditions: n.i.: no inhibition
Method: as §1

MTT cytotoxicity assay = type: cell-based; conditions: read-out: Cytotoxic activity (IC50)
Method: (§2) The in vitro cytotoxicity assay was performed using the MTT (3-(4,5-dimethylthiayol-2-yl)-2,5-diphenyltetrazolium bromide) test in 96-well microtiter plates as previously described.

[10] = test system: panel of mammalian cell lines; assay: MTT cytotoxicity assay, panel (summary statements); type: cell-based; conditions: 4–6 only KB3.1 and L929
Method: as §2

[11] = test system: panel of bacteria and fungi; assay: Antimicrobial serial dilution assay, whole panel (summary statements); type: cell-based
Method: as §1

[12] = test system: H. fraxineus (isolate RH02-T6-B4-2); assay: Agar disc diffusion assay; type: cell-based, Hymenoscyphus fraxineus; conditions: for Antifungal activity, inhibition diameter: 6 mm disc, 7 days, 21 °C; for inhibitory effects against H. fraxineus (in words): 50 µg (1) and 20 µg (3) test substance per paper disc
Method: The antifungal activity of the isolated compounds against H. fraxineus was assessed by the disc diffusion method using 9 cm diameter petri dishes as previously described […] Three sterile filter paper discs per plate were gently placed on dried potato–dextrose agar. The fungicide nystatin was applied as the positive control (20 and 50 µg/paper disc) and methanol as the negative control (10 µL/paper disc). The test plates were incubated at 21 °C for 7 days, the inhibition diameters were measured, and the activity was evaluated compared to nystatin.
Figure S44: Agar disc (6 mm diam.) diffusion assay of compound CJ-17,572 (1) against H. fraxineus RH02-T6-B4-2, grown in 9-cm petri dishes on agar-based PD
medium with H. fraxineus, N - positive control nystatin, M - negative control methanol, CJ – 1.
Table S1. Antifungal activity of the compounds 1-6. n.i.: no inhibition, n.t.: not tested.
Compounds Amount ( µg/paper disc)
Peziculastatin n.t. n.i. 8 mm
Mycorrhizin A 19 mm 31 mm n.t.
Cryptosporioptide A n.t. n.i. n.i.
Cryptosporioptide B n.t. n.i. 8 mm
Cryptosporioptide C n.t. n.i. n.i.
Nystatin 21 mm 24 mm n.t.

Nocardioides simplex = test system: Nocardioides simplex; design: method as in PMID 24529574; conditions: cited from earlier work
Micrococcus luteus = test system: Micrococcus luteus; design: method as in PMID 24529574; conditions: cited from earlier work
Nocardia sp. = test system: Nocardia sp.; design: method as in PMID 24529574; conditions: cited from earlier work
[13] = test system: Mycobacterium diernhoferi; design: method as in PMID 24529574; conditions: cited from earlier work
[14] = test system: methicillin-resistant S. aureus (MRSA) strain N315e; design: method as in PMID 24529574; conditions: cited from earlier work
S. aureus = test system: S. aureus; design: method as in PMID 24529574; conditions: cited from earlier work
[15] = 50 µg/paper disc, n.i.: no inhibition

Minimum inhibitory concentration (MIC) [2]: n.i. | MIC ([3]; DSM346, Staphylococcus aureus DSM 346, n.i.: no inhibition, read-out: Minimum inhibitory concentration (MIC)): 66.6 mg/L (≈ 236 µM) | MIC (Bacillus subtilis DSM 10; DSM10, Bacillus subtilis DSM 10, n.i.: no inhibition, read-out: Minimum inhibitory concentration (MIC)): 66.6 mg/L (≈ 236 µM) | MIC ([4]; DSM70572, Schizosaccharomyces pombe DSM 70572, n.i.: no inhibition, read-out: Minimum inhibitory concentration (MIC)): 33.3 mg/L (≈ 118 µM) | MIC ([5]; DSM30191, n.i.: no inhibition, read-out: Minimum inhibitory concentration (MIC)): 66.6 mg/L (≈ 236 µM) | Minimum inhibitory concentration (MIC) [6]: n.i. | MIC (Mucor hiemalis DSM 2656; DSM2656, Mucor hiemalis DSM 2656, n.i.: no inhibition, read-out: Minimum inhibitory concentration (MIC)): 4.2 mg/L (≈ 14.9 µM) | Minimum inhibitory concentration (MIC) [7]: n.i. | MIC (Pichia anomala DSM 6766; DSM6766, Pichia anomala DSM 6766, n.i.: no inhibition, read-out: Minimum inhibitory concentration (MIC)): 16.6 mg/L (≈ 58.7 µM) | MIC ([8]; ATCC700084, Mycobacterium smegmatis ATCC 700084, n.i.: no inhibition, read-out: Minimum inhibitory concentration (MIC)): 66.6 mg/L (≈ 236 µM) | MIC ([9]; DSM10134, Rhodotorula glutinis DSM 10134, n.i.: no inhibition, read-out: Minimum inhibitory concentration (MIC)): 8.3 mg/L (≈ 29.4 µM) | MIC (Candida albicans DSM1665; read-out: Minimum inhibitory concentration (MIC)): 66.6 mg/L (≈ 236 µM)
SMILES: CC=C(Cl)C1=CC(=O)C23CC2C(C)(C)OC3(O)C1=O (centres unmarked) [Compound 3, Mycorrhizin A]
phytotoxic activity, leaf puncture assay [1]: brownish lesions; also recorded: most phytotoxic effects | IC50 (MTT cytotoxicity assay; human, A431 squamous cell carcinoma cells): 1 µM | IC50 (MTT cytotoxicity assay; human, A549 lung carcinoma cells): 22 µM | IC50 (MTT cytotoxicity assay; human, KB3.1 endocervical adenocarcinoma cells, n.c.: no cytotoxicity): 11 µM | IC50 (MTT cytotoxicity assay; human, MCF-7 breast adenocarcinoma cells): 0.64 µM | IC50 (MTT cytotoxicity assay; human, PC-3 prostate cancer cells): 11 µM | IC50 (MTT cytotoxicity assay; human, SKOV-3 ovarian carcinoma cells): 2.4 µM | IC50 (MTT cytotoxicity assay; mouse, L929 fibroblast cells, n.c.: no cytotoxicity): 3.2 µM | cytotoxicity against the tested cell lines (in words) [10]: active against all the tested cell lines | antimicrobial activity against the tested microorganisms (in words) [11]: moderate to weak antifungal activity | Antifungal activity, inhibition diameter ([12]; 20 µg/paper disc): 19 mm | inhibitory effects against H. fraxineus (in words) [12]: strong inhibitory effects | Antifungal activity, inhibition diameter [12, 15]: 31 mm

SMILES: C[C@H]1CC[C@H]2[C@@H](C=C[C@H](C)[C@]2(C)C(=O)C2=C(O)[C@H]([C@@H](C)O)N(C)C2=O)C1 [Compound 1, CJ-17,572]
phytotoxic activity, leaf puncture assay [1]: brownish lesions | Minimum inhibitory concentration (MIC) [2]: n.i. | MIC ([3]; Staphylococcus aureus, DSM346, read-out: Minimum inhibitory concentration (MIC)): 8.3 mg/L (≈ 23 µM) | MIC (Bacillus subtilis DSM 10; Bacillus subtilis, DSM10, read-out: Minimum inhibitory concentration (MIC)): 8.3 mg/L (≈ 23 µM) | MIC ([4]; Schizosaccharomyces pombe, DSM70572, read-out: Minimum inhibitory concentration (MIC)): 33.3 mg/L (≈ 92.1 µM) | Minimum inhibitory concentration (MIC) ([5]; n.i.: no inhibition): n.i. | Minimum inhibitory concentration (MIC) [6]: n.i. | MIC (Mucor hiemalis DSM 2656; Mucor hiemalis, DSM2656, read-out: Minimum inhibitory concentration (MIC)): 4.2 mg/L (≈ 11.6 µM) | Minimum inhibitory concentration (MIC) [7]: n.i. | MIC (Pichia anomala DSM 6766; DSM6766, read-out: Minimum inhibitory concentration (MIC)): 33.3 mg/L (≈ 92.1 µM) | MIC ([8]; ATCC700084, read-out: Minimum inhibitory concentration (MIC)): 66.6 mg/L (≈ 184 µM) | MIC ([9]; Rhodotorula glutinis, DSM10134, read-out: Minimum inhibitory concentration (MIC)): 66.6 mg/L (≈ 184 µM) | Minimum inhibitory concentration (MIC) (Candida albicans DSM1665): n.i. | IC50 (MTT cytotoxicity assay; human, A431): 23 µM | IC50 (MTT cytotoxicity assay; human, A549): 4.4 µM | IC50 (MTT cytotoxicity assay; human, KB3.1, n.c.: no cytotoxicity): 2.5 µM | IC50 (MTT cytotoxicity assay; human, MCF-7): 2.7 µM | IC50 (MTT cytotoxicity assay; human, PC-3): 3.3 µM | IC50 (MTT cytotoxicity assay; human, SKOV-3): 3.3 µM | IC50 (MTT cytotoxicity assay; mouse, L929, n.c.: no cytotoxicity): 5 µM | cytotoxicity against the tested cell lines (in words) [10]: active against all the tested cell lines | antimicrobial activity against the tested microorganisms (in words) [11]: moderate to weak antifungal activity | Antifungal activity, inhibition diameter ([12]; 20 µg/paper disc): 9 mm | inhibitory effects against H. fraxineus (in words) [12]: strong inhibitory effects | Antifungal activity, inhibition diameter [12, 15]: 11 mm

SMILES: C/C=C/[C@@H]1C(C)=C[C@@H]2C[C@H](C)CC[C@H]2[C@]1(C)/C(O)=C1\C(=O)N[C@@H]([C@@H](C)O)C1=O [hymenosetin]
MIC (Nocardioides simplex): ≤ 1.0 mg/L | MIC (Micrococcus luteus): ≤ 1.0 mg/L | MIC (Nocardia sp.): ≤ 1.0 mg/L | MIC [13]: ≤ 1.0 mg/L | MIC [14]: ≤ 1.0 mg/L | MIC (S. aureus): ≤ 1.0 mg/L
